According to US8865894B2, “Oxazolidin-2-one compounds and uses thereof” (Novartis AG, priority 2012, dated 2014):
Where two headings read alike, the source gives them in different places.

Experiments:
[1] = target: T1, human PI3Kbeta p110 catalytic subunit (Rat-1 pBABEpuro Myr-HA-hp110 beta) (Homo sapiens, UniProt P42338); assay: Cellular assay PI3Kbeta (p-Akt(S473) SureFire, Rat-1_PI3beta cells); assay type: cell-based
T1 construct: Myr (myristoylation signal) (N); HA (N); expressed in transfected cells; host or cells: Rat-1
T1 sequence (P42338 whole entry): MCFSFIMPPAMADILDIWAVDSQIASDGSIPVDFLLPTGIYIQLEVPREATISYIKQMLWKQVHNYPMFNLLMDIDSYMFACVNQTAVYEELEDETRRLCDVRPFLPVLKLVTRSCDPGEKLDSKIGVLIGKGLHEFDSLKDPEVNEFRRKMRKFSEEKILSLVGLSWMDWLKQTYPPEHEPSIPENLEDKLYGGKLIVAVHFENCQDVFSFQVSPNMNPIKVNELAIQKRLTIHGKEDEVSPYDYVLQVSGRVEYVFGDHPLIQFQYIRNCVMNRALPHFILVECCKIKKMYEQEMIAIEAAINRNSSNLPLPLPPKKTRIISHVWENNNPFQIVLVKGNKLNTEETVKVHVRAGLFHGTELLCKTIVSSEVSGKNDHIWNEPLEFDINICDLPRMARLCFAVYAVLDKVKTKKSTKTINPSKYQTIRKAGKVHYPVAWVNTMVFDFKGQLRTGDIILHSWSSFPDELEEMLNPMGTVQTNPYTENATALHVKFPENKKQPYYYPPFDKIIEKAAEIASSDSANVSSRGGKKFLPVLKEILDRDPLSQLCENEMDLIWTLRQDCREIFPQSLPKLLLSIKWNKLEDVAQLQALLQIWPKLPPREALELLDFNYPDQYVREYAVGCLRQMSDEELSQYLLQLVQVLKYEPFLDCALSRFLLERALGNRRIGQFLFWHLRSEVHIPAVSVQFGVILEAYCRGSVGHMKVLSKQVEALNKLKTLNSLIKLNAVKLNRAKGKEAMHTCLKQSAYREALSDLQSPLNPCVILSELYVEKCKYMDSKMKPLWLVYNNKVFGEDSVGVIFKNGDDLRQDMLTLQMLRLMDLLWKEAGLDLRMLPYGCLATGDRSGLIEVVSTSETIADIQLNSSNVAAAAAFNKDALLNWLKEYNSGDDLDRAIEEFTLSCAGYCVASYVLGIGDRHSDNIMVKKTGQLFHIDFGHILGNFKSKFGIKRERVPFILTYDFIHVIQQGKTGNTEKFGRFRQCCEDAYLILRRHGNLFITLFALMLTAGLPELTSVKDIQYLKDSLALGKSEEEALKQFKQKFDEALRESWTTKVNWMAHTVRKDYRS
T1 sequence (Q63787 whole entry partner): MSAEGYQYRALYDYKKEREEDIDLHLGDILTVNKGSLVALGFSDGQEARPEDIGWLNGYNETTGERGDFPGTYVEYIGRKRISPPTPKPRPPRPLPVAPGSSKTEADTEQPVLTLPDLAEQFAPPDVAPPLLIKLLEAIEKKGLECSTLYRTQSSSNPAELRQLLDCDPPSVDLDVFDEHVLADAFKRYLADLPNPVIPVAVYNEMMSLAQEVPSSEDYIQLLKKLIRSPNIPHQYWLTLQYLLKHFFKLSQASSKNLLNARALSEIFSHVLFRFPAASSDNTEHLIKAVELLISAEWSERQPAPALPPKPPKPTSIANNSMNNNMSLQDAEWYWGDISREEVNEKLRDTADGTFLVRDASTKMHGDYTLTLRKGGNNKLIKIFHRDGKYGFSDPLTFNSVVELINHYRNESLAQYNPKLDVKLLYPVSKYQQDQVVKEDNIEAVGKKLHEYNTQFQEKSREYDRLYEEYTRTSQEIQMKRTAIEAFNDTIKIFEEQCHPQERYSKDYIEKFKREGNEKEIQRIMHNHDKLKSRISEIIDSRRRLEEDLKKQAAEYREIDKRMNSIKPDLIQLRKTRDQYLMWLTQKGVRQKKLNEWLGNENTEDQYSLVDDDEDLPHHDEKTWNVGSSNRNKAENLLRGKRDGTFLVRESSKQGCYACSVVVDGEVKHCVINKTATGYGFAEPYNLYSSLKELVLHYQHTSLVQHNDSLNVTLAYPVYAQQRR
Excerpt: AlphaScreen (Amplified Luminescent Proximity Homogeneous Assay, ALPHA, Perkin Elmer) is a non-radioactive bead-based proximity assay technology to study biomolecular interactions in a homogenous microtiter plate format. The brand name SureFire denotes AlphaScreen assays that are adapted to quantify the phosphorylation of endogenous cellular proteins in cell lysates, by using matched antibody pairs, which consist of an anti-phospho-kinase and an anti-kinase antibody. The assay allows characterization of kinase signaling in cells as well as measurement of kinase inhibitor effects. The AlphaScreen technology provides several advantages over standard assay techniques such as ELISA, as it avoids time-consuming washing procedures and reduces plate handling. Furthermore, it is miniaturizable at least to a 384-well format and provides sensitivity down to the femtomolar range, dependent on the affinity of the antibodies included in the individual AlphaScreen SureFire assay kit. High sensitivity is reached by an intrinsic amplification mechanism, which involves production of singlet oxygen molecules. SureFire assay kits are commercially available for specific targets and include pairs of validated antibodies (PerkinElmer). This report describes common procedures applied for AlphaScreen SureFire assays and respective semi-automated steps for routine kinase inhibitor profiling in cell-based assays.
The Rat-1 cell lines stably overexpressing activated PI3K class I isoforms Rat-1 pBABEpuro Myr-HA-hp110 delta (Rat-1_PI3Kdelta) and Rat-1 pBABEpuro Myr-HA-hp110alpha (Rat-1_PI3Kalpha) and Rat-1 pBABEpuro Myr-HA-hp110 beta (Rat-1_PI3beta) were prepared as described (Maira S M, Stauffer F, Brueggen J, Furet P, Schnell C, Fritsch C, Brachmann S, Chène P, de Pover A, Schoemaker K, Fabbro D, Gabriel D, Simonen M, Murphy L, Finan P, Sellers W, García-Echeverría C (2008), Mol Cancer Ther. 7:1851-63 and Maira S M, Pecchi S, Brueggen J, Huh K, Schnell C, Fritsch C, Nagel T, Wiesmann M, Brachmann S, Dorsch M, Chène P, Schoemaker K, De Pover A, Menezes D, Fabbro D, Sellers W, García-Echeverría C, Voliva C F (2011), Mol. Cancer Ther., accepted). All cell lines were cultivated in complete growth medium (DMEM high glucose, 10% (v/v) fetal bovine serum, 1% (v/v) MEM NEAA, 10 mM HEPES, 2 mM L-glutamine, puromycin (10 μg/mL for Rat-1_PI3Kdelta and Rat-1_PI3Kalpha, 4 ug/mL for Rat-1_PI3beta), 1% (v/v) Pen/Strep) to 90% confluency at 37° C./5% CO2/90% humidity in a humidified CO2 incubator and were split twice a week.
The following materials were used for p-AKT(S473) detection in Rat-1 cell lysates: Dulbecco's modified Eagle's medium (DMEM) high glucose (Gibco Invitrogen, Basel, Switzerland, Cat. No. 41965), Heat Inactivated Fetal Bovine Serum, Qualified (HI FBS; Gibco Invitrogen, Basel, Switzerland, Lot. No. 16140), MEM non essential amino acids (NEAA; Gibco Invitrogen, Basel, Switzerland, Cat. No. 11140), HEPES (Gibco Invitrogen, Basel, Switzerland, Cat. No. 15630), Penicillin/Streptomycin (Pen/Strep, 100×; Gibco Invitrogen, Basel, Switzerland, Cat. No. 15140-122), L-Glutamine (Gibco Invitrogen, Basel, Switzerland, Cat. No. 25030), Puromycin (Sigma Aldrich, Buchs, Switzerland, Cat. No. P9620), DMSO (MERCK, Dietikon, Switzerland, Cat. No. 8.02912.2500), H2O, MilliQ-H2O unless otherwise stated (MILLIPORE QGARDOOR1, Millipore, Zug, Switzerland), Bovine serum albumine (BSA; Sigma Aldrich, Buchs, Switzerland Cat. No. A8412), SureFire p-Akt 1/2 (Ser473) Assay Kit (PerkinElmer, Schwerzenbach, Switzerland, Cat. No. TGRAS50K).
The p-Akt(S473) SureFire assay measures the phosphorylation of endogenous cellular Akt 1/2 at Ser473 in cell lysates. Using Rat-1 cells stably expressing myr-HA-tagged versions of the human PI3Kdelta, PI3Kalpha, or PI3Kbeta p110 catalytic subunit isoforms, the assay was developed as a two-plate protocol in a 384-well format.

mTOR = target: T2, mTOR (Mus musculus, UniProt Q9JLN9); assay: Cellular assay mTOR (phospho-T389 S6K1 SureFire in TSC1-/- MEF cells); assay type: cell-based
T2 construct: endogenous in cells; host or cells: TSC1-/- MEF (mouse embryo fibroblasts)
Excerpt: A cell based assay (384-well format) was developed for determination of compound effects on cellular mTOR kinase activity in MEF (mouse embryo fibroblasts) cells derived from mice lacking TSC1 (Tuberosclerosis Complex1) a potent suppressor of mTOR kinase activity. Due to lack of TSC1 the mTOR kinase is constitutively activated resulting in permanent phosphorylation of Thr 389 of S6 kinase 1 (S6K1) which is one of the downstream targets of mTOR.
Using a SureFire Kit that enables to determine the phosphorylation of Thr389 on the S6K1 an assay was developed, validated and implemented in the Alpha-Screen format that allows the quantitative determination of phospho-T389 of S6K1 in cell lysates. […] These were in agreement with those values obtained with the biochemical mTOR ATP-binding assay enabling a quantitative comparison of potency of mTOR inhibitors.
TSC1−/− MEFs cells (Kwiatkowski, D. J., Zhang, H., Bandura, J. L., Heiberger, K. M., Glogauer, M., el-Hashemite, N., and Onda, H. (2002) Hum. Mol. Genet. 11, 525-534) were cultured in DMEM high glucose medium supplemented with 10% FBS (Invitrogen), 2 mM Glutamine and 1% (w/v) Penicillin/Streptomycin at 37° C., 5% CO2.
The SureFire kit for determination of P70S6kinase phosphorylation was purchased from Perkin Elmer (p70S6K p-T389, #TGR70S50K) and the assay was performed according to the instructions of the supplier and according to the generic method for SureFire assays. Shortly, 5 μL cell lysate per well were transferred to 384-well white proxy-plates (for luminescent readout) and mixed with […] and […] (final volume: 12 μL). After 3 h incubation in the dark at RT luminescence was read with the Envision Reader (Perkin Elmer). Untreated cells were used as control (high control) and cells treated with 3 μM BEZ235 were used as low control. The assay window between the signals obtained for the high and the low controls were defined as 100% and compound effects were expressed as percent inhibition. IC50 values were calculated from the dose response curves by graphical extrapolation.

[2] = p-Akt(S473), 1 h compound treatment, read-out: Rat1-PI3Kb/ IC50
[3] = TSC1-/- MEF cells, read-out: mTOR S6K(T389)_TSC1ko/ IC50
[4] = second value / 3 of the 4 values / 3 of the 5 values as per footnote, read-out: mTOR S6K(T389)_TSC1ko IC50, further individual values (footnotes)

SMILES | IC50 [1, 2] [nM] | IC50 (mTOR; [3]) [nM] | IC50 ([1]; fourth measurement, outlier, read-out: Rat1-PI3Kb IC50, fourth measurement (footnote)) [nM] | IC50 (mTOR; [4]) [nM]
CC1(CO)COC(=O)N1c1cc(-c2cnc(N)nc2C(F)(F)F)nc(N2CCOCC2)n1 (racemic) [Example 3, 3-(2′-amino-2-morpholino-4′-(trifluoromethyl)-4,5′-bipyrimidin-6-yl)-4-(hydroxymethyl)-4-methyloxazolidin-2-one] | 193 | 759 |  | 
Nc1ncc(-c2cc(N3C(=O)O[C@@H]4[C@@H](O)CC[C@@H]43)nc(N3CCOCC3)n2)c(C(F)(F)F)n1 (racemic) [Example 22, (3aR*,6R*,6aR*)-3-(2′-Amino-2-morpholino-4′-(trifluoromethyl)-[4,5′-bipyrimidin]-6-yl)-6-hydroxyhexahydro-2H-cyclopenta[d]oxazol-2-one] | 77 | 1390 |  | 
Nc1ncc(-c2cc(N3C(=O)OC4C(O)CCC43)nc(N3CCOCC3)n2)c(C(F)(F)F)n1 (single isomer, unassigned) [Example 22A] | 60 | 2120 |  | 
Nc1ncc(-c2cc(N3C(=O)OC4C(O)CCC43)nc(N3CCOCC3)n2)c(C(F)(F)F)n1 (single isomer, unassigned) [Example 22B] | 125 | 2300 |  | 
C[C@H]1COC(=O)N1c1cc(-c2cnc(N)nc2C(F)(F)F)nc(N2CCOCC2)n1 [Example 1, (S)-3-(2′-Amino-2-morpholin-4-yl-4′-trifluoromethyl-[4,5′]bipyrimidinyl-6-yl)-4-methyl-oxazolidin-2-one] | 65 | 964 | 3900 | 
Nc1ncc(-c2cc(N3C(=O)O[C@H]4CCCC[C@@H]43)nc(N3CCOCC3)n2)c(C(F)(F)F)n1 [Example 4, (3aS,7aS)-3-(2′-Amino-2-morpholin-4-yl-4′-trifluoromethyl-[4,5′]bipyrimidinyl-6-yl)-hexahydro-benzooxazol-2-one] | 183 | 647 |  | 
COC[C@H]1COC(=O)N1c1cc(-c2cnc(N)nc2C(F)(F)F)nc(N2CCOCC2)n1 [Example 5, (S)-3-(2′-Amino-2-morpholin-4-yl-4′-trifluoromethyl-[4,5′]bipyrimidinyl-6-yl)-4-methoxymethyl-oxazolidin-2-one] | 314 | 1410 |  | 
Nc1ncc(-c2cc(N3C(=O)OC[C@@H]3CCO)nc(N3CCOCC3)n2)c(C(F)(F)F)n1 [Example 9, (S)-3-(2′-Amino-2-morpholin-4-yl-4′-trifluoromethyl-[4,5′]bipyrimidinyl-6-yl)-4-(2-hydroxy-ethyl)-oxazolidin-2-one] | 226 | 1260 |  | > 2270
Nc1ncc(-c2cc(N3CCOC3=O)nc(N3CCOCC3)n2)c(C(F)(F)F)n1 [Example 11, 3-(2′-Amino-2-morpholin-4-yl-4′-trifluoromethyl-[4,5′]bipyrimidinyl-6-yl)-oxazolidin-2-one, reference compound] | 184 | 1410 |  | > 2270

The remaining lines, values ahead:

IC50 [1, 2] [nM] | IC50 (mTOR; [3]) [nM] | IC50 ([1]; fourth measurement, outlier, read-out: Rat1-PI3Kb IC50, fourth measurement (footnote)) [nM] | IC50 (mTOR; [4]) [nM] | SMILES
75 | 857 |  |  | C[C@H]1C(CC(C)(C)O)OC(=O)N1c1cc(-c2cnc(N)nc2C(F)(F)F)nc(N2CCOCC2)n1 (mixture of isomers) [Example 26, (4S,5R)- and (4S,5S)-3-(2′-amino-2-morpholino-4′-(trifluoromethyl)-[4,5′-bipyrimidin]-6-yl)-5-(2-hydroxy-2-methylpropyl)-4-methyloxazolidin-2-one]
34 | 1830 |  |  | C[C@@H](O)C[C@H]1OC(=O)N(c2cc(-c3cnc(N)nc3C(F)(F)F)nc(N3CCOCC3)n2)[C@H]1C (single isomer, unassigned) [Example 24]
43 | 1830 |  |  | C[C@H](O)CC1OC(=O)N(c2cc(-c3cnc(N)nc3C(F)(F)F)nc(N3CCOCC3)n2)[C@H]1C (single isomer, unassigned) [Example 25]
278 |  |  |  | CC1(C)OC(=O)N(c2cc(-c3cnc(N)nc3C(F)(F)F)nc(N3CCOCC3)n2)[C@H]1CO [Example 2, (S)-3-(2′-Amino-2-morpholin-4-yl-4′-trifluoromethyl-[4,5′]bipyrimidinyl-6-yl)-4-hydroxymethyl-5,5-dimethyl-oxazolidin-2-one]
147 | 574 |  |  | C[C@@H]1OC(=O)N(c2cc(-c3cnc(N)nc3C(F)(F)F)nc(N3CCOCC3)n2)[C@H]1CO [Example 6]
108 | 994 |  |  | [2H]C1([2H])OC([2H])([2H])C([2H])([2H])N(c2nc(-c3cnc(N)nc3C(F)(F)F)cc(N3C(=O)O[C@H](C)[C@@H]3CO)n2)C1([2H])[2H] [Example 8]
173 | 2020 |  | > 2270 | C[C@H]1OC(=O)N(c2cc(-c3cnc(N)nc3C(F)(F)F)nc(N3CCOC[C@@H]3C)n2)[C@H]1CO [Example 10, (4S,5R)-3-[2′-Amino-2-((S)-3-methyl-morpholin-4-yl)-4′-trifluoromethyl-[4,5′]bipyrimidinyl-6-yl]-4-hydroxymethyl-5-methyl-oxazolidin-2-one]
123 | 1100 |  |  | C[C@H]1OC(=O)N(c2cc(-c3cnc(N)nc3C(F)(F)F)nc(N3CCOCC3)n2)[C@H]1COC=O [Example 12, Formic acid (4S,5R)-3-(2′-amino-2-morpholin-4-yl-4′-trifluoromethyl-[4,5′]bipyrimidinyl-6-yl)-5-methyl-2-oxo-oxazolidin-4-ylmethyl ester]
